In patent publication US20240300943A1, “NOVEL SALTS OF HETEROCYCLIC COMPOUND AS PROTEIN KINASE INHIBITOR AND USES THEREOF” (HK INNO.N CORPORATION, priority 2021, published 2024):

Key:
[1] = system: anti-CD3 and anti-CD28-activated PBMC of patients with atopic dermatitis; experiment: IL-13, IL-10 and TNF-α secretion in activated PBMC of atopic patients; type: cell-based, human; conditions: 100 nM and 1,000 nM, 24 hours, FIG. 9
Procedure: 50 μL of DNase I (2000 unit/mL) was added to 50 mL of cell culture medium and mixed. (Since enzyme and cells were used, the medium was heated in a 37° C. water bath before use.) In addition, PMBC of atopic patients was rapidly dissolved in a 37° C. water bath.
PMBC was slowly flowed into the prepared medium, and reacted at 37° C. for five minutes. Centrifugation was performed using a centrifuge at 200 rpm for 15 minutes, after which supernatants were removed, suspended in 1 mL of cell culture medium, and counted.
Cells were diluted in cell culture medium and seeded in a 96-well plate to reach 2×10^5 cells/100 μL/well.
50 μL of PBMC activation medium (0.5 μg/ml CD3 antibody, 5 μg/ml CD28 antibody) was added to every well except the negative control well. (50 μL of cell culture medium was added to each negative control well.)
50 μL of the test material was added to each well according to each concentration. (final concentration of 1 nM, 10 nM, 100 nM, 1,000 nM, 50 μL of cell culture medium was added to each negative control well.)
After incubation in a 5% CO2 incubator at 37° C. for 24 hours, the plates were centrifuged at 200 rpm for 15 minutes as they were, and 150 μL of the suspension was taken, placed in a 96-well round bottom plate, and stored in a deep freezer at minus 80° C.
After the culture supernatant samples were dissolved, ELISA was performed according to the data sheet protocol of ELISA kit.

[2] = target: JAK2 (Homo sapiens, UniProt O60674); experiment: In vitro cell assay, JAK2 (STAT phosphorylation ELISA); type: cell-based; design: endogenous in cells; host or cells: UT-7/EPO (inferred); conditions: read-out: IC50, Cell Biology JAK2
Procedure: UT-7/EPO cell is an erythroleukemic cell line which expresses an EPO receptor, and is frequently used in many previous studies as a model to assess EPO-induced STAT5 phosphorylation mediated by JAK1 and JAK2 activity. Accordingly, in order to evaluate the activity of JAK1 and JAK2, UT-7/EPO cells were prepared.
(§1) The test material was dissolved in DMSO, prepared at 10 mM, divided by 20 μL each, and stored at −20° C.
(§2) • EPO: 2000 U/0.5 mL of stock was divided by 50 μL each and stored under refrigeration. • IL-2: 200 μg/ml of stock was prepared, divided by 5 μL each, and stored, and then treated at 2 ng/ml. (IL-2 1 μg/ml=13000 U/ml) • IFN-alphaB2: […] of stock was diluted and used, and then treated to reach 30000 U/ml.
(§3) • UT-7/EPO cell assay: MEM-alpha (Gibco, cat #12561-056) was prepared to contain 5% FBS and 1% P/S before use. • NK-92 cell assay: A preparation was made to contain HBSS, 1% FBS and 1% P/S before use. • U2OS cell assay: A preparation was made to contain HBSS, 1% FBS and 1% P/S before use.
(§4) The cultured cells were centrifuged (1,000 rpm, 5 minutes) and washed with PBS. The size of cell lines and appropriate reaction concentration thereof were set and the cell lines were seeded in a 96-well plate at 1×10^5 to 10^6 cells/well (50 μL/well). […]

[3] = system: JAK2; experiment: Human whole blood assay, JAK2; type: cell-based; conditions: cytokine-induced STAT phosphorylation
Procedure: A stock solution of Compound 1 obtained according to Preparation Example 1 was diluted with distilled water and then serially diluted at ⅕ with 4% DMSO. 5 μL of test material was added to 100 μL of whole blood collected using a 1.7 mL eppendorf tube, mixed, and incubated at 37° C. for 45 minutes.
IL-6 (10 μg/ml) was diluted with 0.1% BSA/DW to reach 1 μg/mL each. 5 μL of IL-6 was added (at a final concentration of 50 ng/mL) and incubated at 37° C. for 15 minutes. At this time, 5 μL of DPBS was added as a non-stimulated control group. Lyse/fix buffer 5× was diluted 1× in distilled water and used. […]
For double staining of CD4 and pSTATI, anti-[…] and anti-pSTATI were mixed in a staining buffer and added to each of the samples. […] On the next day, the results were analyzed using FACSCanto II. […]
The numerical values analyzed by FlowJo were calculated to obtain IC50 values using GraphPad Prism 5 software (product name).
No treatment response (NTR) was set as a reference, and the degree of the phosphorylation of STAT induced by cytokines was converted into a relative ratio (% control group). A dose-response plot was obtained for each concentration-dependent activity of each test material using GraphPad Prism (version 5.0) and ICso values were calculated.

[4] = system: JAK1, 3; experiment: In vitro cell assay, JAK1, 3 (NK-92 cells, IL-2); type: cell-based; conditions: NK92, read-out: IC50, Cell Biology JAK1, 3
Procedure: In addition, NK-92 cell is a natural killer cell line, which grows in an IL-2-dependent way, and is derived from peripheral blood mononuclear cells, and thus is suitable for evaluating the activity of JAK1 and JAK3 by IL-2. Thus, in order to evaluate the activity of JAK1 and JAK3, NK-92 cells were prepared.
as §1, §2, §3, §4

JAK2 (Homo sapiens, UniProt O60674), sequence (O60674 whole entry, species assumed): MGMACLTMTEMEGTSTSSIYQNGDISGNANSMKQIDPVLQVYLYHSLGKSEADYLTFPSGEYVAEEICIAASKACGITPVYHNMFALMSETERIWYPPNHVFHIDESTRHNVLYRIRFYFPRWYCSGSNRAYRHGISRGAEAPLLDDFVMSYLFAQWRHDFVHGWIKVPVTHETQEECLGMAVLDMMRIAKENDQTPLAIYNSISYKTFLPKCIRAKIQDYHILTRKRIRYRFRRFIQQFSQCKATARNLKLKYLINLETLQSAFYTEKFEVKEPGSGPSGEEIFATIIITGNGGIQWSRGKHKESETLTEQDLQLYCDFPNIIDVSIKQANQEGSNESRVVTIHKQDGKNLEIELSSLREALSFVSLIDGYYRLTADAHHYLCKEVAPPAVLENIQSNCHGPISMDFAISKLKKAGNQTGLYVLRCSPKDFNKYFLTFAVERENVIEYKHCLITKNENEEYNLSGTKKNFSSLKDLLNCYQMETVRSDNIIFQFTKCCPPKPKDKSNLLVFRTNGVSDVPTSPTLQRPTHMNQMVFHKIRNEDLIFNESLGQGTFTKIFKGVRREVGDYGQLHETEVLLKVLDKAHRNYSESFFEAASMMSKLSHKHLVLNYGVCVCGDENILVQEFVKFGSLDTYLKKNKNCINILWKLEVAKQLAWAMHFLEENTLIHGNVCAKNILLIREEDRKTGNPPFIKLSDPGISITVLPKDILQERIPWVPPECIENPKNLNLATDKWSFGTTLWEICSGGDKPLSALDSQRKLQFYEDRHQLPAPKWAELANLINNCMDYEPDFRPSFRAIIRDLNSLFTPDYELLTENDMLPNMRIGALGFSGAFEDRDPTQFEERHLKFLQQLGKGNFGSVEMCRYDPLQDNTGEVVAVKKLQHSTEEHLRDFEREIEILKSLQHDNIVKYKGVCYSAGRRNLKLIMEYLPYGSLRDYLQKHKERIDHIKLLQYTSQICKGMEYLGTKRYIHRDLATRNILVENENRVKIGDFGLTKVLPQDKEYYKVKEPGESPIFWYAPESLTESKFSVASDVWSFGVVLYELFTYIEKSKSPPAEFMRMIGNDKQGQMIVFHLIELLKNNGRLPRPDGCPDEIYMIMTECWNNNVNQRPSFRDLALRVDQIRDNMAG

`C[C@@H]1CN(C(=O)CC#N)CC=C1c1cc(NC(=O)C2CC2)nc2[nH]ccc12` [Compound 1, (S)—N-(4-(1-(2-cyanoacetyl)-3-methyl-1,2,3,6-tetrahydropyridin-4-yl)-1H-pyrrolo[2,3-b]pyridin-6-yl)cyclopropanecarboxamide] was tested, and the IL-10 secretion [1] was “significantly reduced”, the IL-13 secretion [1] was “significantly reduced” and the TNF-α secretion [1] was “significantly reduced”. The IC50 [2] was 656 nM, the IC50 [3] was 774 nM and the IC50 [4] was 163 nM.
